# Assay results: patent US9212151B2, “Heterocyclic compounds useful for kinase inhibition” (Amitech Therapeutic Solutions, Inc., priority 2010, dated 2015)
# Experiment: MTT cell viability assay, compounds at 5, 1 and 0.2 μM, 48 hours
# Type: cell-based
# Settings: human, A549 tumor cells
# Procedure: MTT assay is used to determine cell proliferation, percent of viable cells, and cytotoxicity. MTT (3-[4,5-dimethylthiazol-2-yl]2,5-diphenyltetrazolium bromide) is a yellow dye, which can be absorbed by the living cells and be reduced to purplish blue formazan crystals by succinate tetrazolium reductase in mitochondria. Formazan formation can therefore be used to assess and determine the survival rate of cells.
# Tumor cells (A549) were plated at 2500 cells/well of a 96-well plate in complete growth medium (DMEM+10% FBS, antibiotic/antimycotic, fungizone, L-glutamine, sodium pyruvate, and non-essential amino acids). The cells were allowed to grow overnight. After cell proliferation, the cells were washed and re-suspended in fresh culture medium and placed in 96 well plates.
# To each of the 96 well plates containing A549 and a control, 5, 1, and 0.2 μM of the exemplary compounds 1-200 were add. The 96 well plates were incubated for 48 hours. Cell viability was measured by adding MTT (Sigma) at 5 mg/ml for 4 h to the cells and then removing the medium and resuspending each well in 50 μl DMSO to solubilize the crystals. The 96-well plates were read on a plate-scanning spectrophotometer (BioTek) at an absorbance of […]. The survival rate of cells was calculated based on the measurement of absorption at the 570 nm wavelength by enzyme immunoassay analyzer.
Compound,"viability at 48 h, 0.2 µM [%]","viability at 48 h, 1 µM [%]","viability at 48 h, 5 µM [%]"
FC(F)(F)c1cccc(Nc2nnc(-c3ccc(Oc4ccnc5[nH]ccc45)cc3)[nH]2)c1 [Compound 68],> 70,50 to 70,< 50
Nc1cc(Oc2ccc(-c3nnc(Nc4cccc(C(F)(F)F)c4)[nH]3)cc2)c2ccccc2n1 [Compound 69],> 70,> 70,> 70
COc1ccc2c(Oc3ccc(-c4nnc(Nc5cccc(C(F)(F)F)c5)[nH]4)cc3)ncnc2c1 [Compound 70],> 70,> 70,< 50
COc1nccc(Oc2ccc(-c3nnc(Nc4cccc(C(F)(F)F)c4)[nH]3)cc2)n1 [Compound 71],> 70,> 70,50 to 70
COc1nc(N)cc(Oc2ccc(-c3nnc(Nc4cccc(C(F)(F)F)c4)[nH]3)cc2)n1 [Compound 72],> 70,> 70,< 50
COc1cc(Oc2ccc(-c3nnc(Nc4cccc(C(F)(F)F)c4)[nH]3)cc2)ccn1 [Compound 73],> 70,> 70,< 50
Cc1cc(Oc2ccc(-c3nnc(Nc4cccc(C(F)(F)F)c4)[nH]3)cc2)ccn1 [Compound 74],> 70,< 50,< 50
COc1nc(Oc2ccc(-c3nnc(Nc4cccc(C(F)(F)F)c4)[nH]3)cc2)c2cc[nH]c2n1 [Compound 75],> 70,> 70,> 70
COc1cc(Oc2ccc(-c3nnc(Nc4cccc(C(F)(F)F)c4)[nH]3)cc2)ncn1 [Compound 76],> 70,> 70,50 to 70
CCc1cc(Oc2ccc(-c3nnc(Nc4cccc(C(F)(F)F)c4)[nH]3)cc2)nc(N)n1 [Compound 77],> 70,50 to 70,50 to 70
COCCOc1nc(N)cc(Oc2ccc(-c3nnc(Nc4cccc(C(F)(F)F)c4)[nH]3)cc2)n1 [Compound 78],> 70,> 70,< 50
CCOc1nc(N)cc(Oc2ccc(-c3nnc(Nc4cccc(C(F)(F)F)c4)[nH]3)cc2)n1 [Compound 79],> 70,< 50,< 50
CC(C)(C)Sc1nc(N)cc(Oc2ccc(-c3nnc(Nc4cccc(C(F)(F)F)c4)[nH]3)cc2)n1 [Compound 80],> 70,50 to 70,< 50
CCc1nc(N)cc(Oc2ccc(-c3nnc(Nc4cccc(C(F)(F)F)c4)[nH]3)cc2)n1 [Compound 81],> 70,50 to 70,< 50
Cc1nc(N)cc(Oc2ccc(-c3nnc(Nc4cccc(C(F)(F)F)c4)[nH]3)cc2)n1 [Compound 82],> 70,> 70,50 to 70
FC(F)(F)c1cccc(Nc2nnc(-c3ccc(Oc4cncnc4)cc3)[nH]2)c1 [Compound 83],> 70,> 70,> 70
Nc1nc(OCC2CC2)cc(Oc2ccc(-c3nnc(Nc4cccc(C(F)(F)F)c4)[nH]3)cc2)n1 [Compound 84],> 70,> 70,> 70
FC(F)(F)c1cccc(Nc2nnc(-c3cccc(Oc4ccnc5[nH]ccc45)c3)[nH]2)c1 [Compound 85],> 70,> 70,50 to 70
Nc1cc(Oc2cccc(-c3nnc(Nc4cccc(C(F)(F)F)c4)[nH]3)c2)c2ccccc2n1 [Compound 86],> 70,> 70,> 70
COc1ccc2c(Oc3cccc(-c4nnc(Nc5cccc(C(F)(F)F)c5)[nH]4)c3)ncnc2c1 [Compound 87],> 70,> 70,> 70
COc1nccc(Oc2cccc(-c3nnc(Nc4cccc(C(F)(F)F)c4)[nH]3)c2)n1 [Compound 88],> 70,> 70,> 70
COc1nc(N)cc(Oc2cccc(-c3nnc(Nc4cccc(C(F)(F)F)c4)[nH]3)c2)n1 [Compound 89],> 70,> 70,> 70
COc1cc(Oc2cccc(-c3nnc(Nc4cccc(C(F)(F)F)c4)[nH]3)c2)ccn1 [Compound 90],> 70,> 70,> 70

Compound,"viability at 48 h, 0.2 µM [%]","viability at 48 h, 1 µM [%]","viability at 48 h, 5 µM [%]"
Cc1cc(Oc2cccc(-c3nnc(Nc4cccc(C(F)(F)F)c4)[nH]3)c2)ccn1 [Compound 91],> 70,> 70,50 to 70
COc1nc(Oc2cccc(-c3nnc(Nc4cccc(C(F)(F)F)c4)[nH]3)c2)c2cc[nH]c2n1 [Compound 92],> 70,> 70,> 70
COc1cc(Oc2cccc(-c3nnc(Nc4cccc(C(F)(F)F)c4)[nH]3)c2)ncn1 [Compound 93],> 70,> 70,50 to 70
CCc1cc(Oc2cccc(-c3nnc(Nc4cccc(C(F)(F)F)c4)[nH]3)c2)nc(N)n1 [Compound 94],> 70,> 70,50 to 70
COCCOc1nc(N)cc(Oc2cccc(-c3nnc(Nc4cccc(C(F)(F)F)c4)[nH]3)c2)n1 [Compound 96],> 70,> 70,> 70
CCOc1nc(N)cc(Oc2cccc(-c3nnc(Nc4cccc(C(F)(F)F)c4)[nH]3)c2)n1 [Compound 97],> 70,> 70,> 70
CC(C)(C)Sc1nc(N)cc(Oc2cccc(-c3nnc(Nc4cccc(C(F)(F)F)c4)[nH]3)c2)n1 [Compound 98],> 70,> 70,> 70
CCc1nc(N)cc(Oc2cccc(-c3nnc(Nc4cccc(C(F)(F)F)c4)[nH]3)c2)n1 [Compound 99],> 70,> 70,50 to 70
Cc1nc(N)cc(Oc2cccc(-c3nnc(Nc4cccc(C(F)(F)F)c4)[nH]3)c2)n1 [Compound 100],> 70,> 70,> 70
FC(F)(F)c1cccc(Nc2nnc(-c3cccc(Oc4cncnc4)c3)[nH]2)c1 [Compound 101],> 70,> 70,> 70
CSc1nc(N)cc(Oc2ccc(-c3nnc(Nc4cccc(C(F)(F)F)c4)[nH]3)cc2C)n1 [Compound 102],> 70,> 70,> 70
FC(F)(F)c1cccc(Nc2nnc(-c3ccc(Oc4ccncc4)c(Cl)c3)[nH]2)c1 [Compound 103],> 70,> 70,50 to 70
CSc1nc(N)cc(Oc2ccc(-c3nnc(Nc4cccc(C(F)(F)F)c4)[nH]3)cc2Cl)n1 [Compound 104],> 70,> 70,< 50
CSc1nc(N)cc(Oc2ccc(-c3nnc(Nc4ccc(F)c(C(F)(F)F)c4)[nH]3)cc2)n1 [Compound 105],> 70,> 70,< 50
CSc1nc(N)cc(Oc2cccc(-c3nnc(Nc4ccc(F)c(C(F)(F)F)c4)[nH]3)c2)n1 [Compound 106],> 70,> 70,> 70
CSc1nc(N)cc(Oc2ccc(-c3nnc(Nc4cccc(C(F)(F)F)c4)[nH]3)c(F)c2)n1 [Compound 107],> 70,> 70,50 to 70
COc1cc(-c2nnc(Nc3cccc(C(F)(F)F)c3)[nH]2)ccc1Oc1ccncc1 [Compound 108],> 70,> 70,< 50
COc1cc(-c2nnc(Nc3cccc(C(F)(F)F)c3)[nH]2)ccc1Oc1cc(N)nc(SC)n1 [Compound 109],> 70,> 70,< 50
CSc1nc(N)cc(Oc2c(C)cc(-c3nnc(Nc4cccc(C(F)(F)F)c4)[nH]3)cc2C)n1 [Compound 110],> 70,> 70,> 70
FC(F)(F)c1cccc(Nc2nnc(-c3ccc(Oc4ccncc4)cc3Cl)[nH]2)c1 [Compound 111],> 70,> 70,> 70
CSc1nc(N)cc(Oc2ccc(-c3nnc(Nc4cccc(C(F)(F)F)c4)[nH]3)c(Cl)c2)n1 [Compound 112],> 70,> 70,> 70
COCCOCCSc1nc(N)cc(Oc2ccc(-c3nnc(Nc4cccc(C(F)(F)F)c4)[nH]3)cc2)n1 [Compound 113],> 70,> 70,
